According to patent US4368194A, “Pharmacologically active amine boranes” (The United States of America as represented by the …, priority 1981, dated 1983):
Like-named read-outs stand apart in the source and are kept apart here.

Key:
CF1 male mice = assay: Writhing reflex (acetic acid); format: in vivo; conditions: for Writhing Reflex: 20 mg/kg intraperitoneally, mice; for inhibition of the writhing reflex: text summary of Table II
Description: CF1 male mice were administered test drugs at 20 mg/kg intraperitoneally 20 min (see Hendershat et al., J. Pharmacol Exp. Ther. 125, 237 1959) prior to the administration of 0.5 ml of 0.6% acetic acid (Vingar et al., European J. PHarmacol, 37, 23 1976). After 5 min the number of stretches, characterized by repeated contractures of the abdominal musculature accompanied by extension of the hind limbs, was counted for the next 10 min. The control mice had 78 stretch reflexes per 10 min.

liver mitochondria [1] = assay: Oxidative phosphorylation, α-ketoglutarate as substrate; format: biochemical, rats; conditions: 5 μmoles; for Oxidative Phosphorylation α Ketoglutarate State 3: ADP stimulated respiration; for Oxidative Phosphorylation α Ketoglutarate State 4: basal respiration
Description: (§1) Basal and adenosine diphosphate stimulated respiration on 10% liver homogenates was measured using succinate or αketoglutarate as substrate. See Glatt, et al., supra. The reaction vessel contained sucrose 55μ moles, KCl 22μ moles, K2 HPO4 22μ moles, test compounds at 5μ moles in 1% CMC and sodium succinate 90μ moles or αketoglutarate 60μ moles in a total volume of 1.8 ml. […] The rate of respiration was calculated at μl of O2 consumed/hr/mg wet weight of liver.

[2] = tested on: carrageenan induced edema in mouse foot pads; assay: Anti-inflammatory screen (carrageenan induced foot edema); format: in vivo, mice; conditions: for Anti-inflammatory Screen: mice; for inhibition of the carrageenan induced edema in mouse foot pads: text summary of Table II
Description: CF1 male mice (about 30 g) were administered test drugs at 10 mg/kg in 0.05% polysorbate .80-water intraperitoneally 3 hr and 30 min prior to 0.05 ml of 2% carrageenan in 0.9% saline injected into the plantar surface of the right hind foot. Saline injected into the left hind foot served as a base line. After 3 hr, both feet were excised at the tibiotarsal (ankle) joint according to the modified (Roszkowski et al., J. Pharm. Exp. Ther., 179, 114 1971) method of Winter, resulting in an 87 mg net increase in the weight of the control animals' feet.

cAMP levels in PMNs = assay: Cyclic-3',5'-adenosine monophosphate levels (cAMP) in PMNs; format: cell-based; conditions: for activity at 5 µmol / activation at 5 µmol: 1 h; for activation at 5 µmol: read-out: increase of cyclic adenosine monophosphate levels in PMNs
Description: (§2) Polymorphonuclear neutrophils (PMNs) were collected from the peritoneal cavity four hr after the injection of 35 ml of 0.5% oyster glycogen in isotonic saline (Orange et al., J. Exp. Med., 127, 767 1968). The PMNs were centrifuged down at 800 g for 20 min, washed, and resuspended in minumen essential medium (MEM) with 10% fetal calf serum pH 7.4.
Isolated PMNs were incubated with test drugs at 5μ moles for 1 hr at 37° C. in MEM at pH 7.4. The reaction was stopped with 6% trichloroacetic acid. The cyclic-3',5'-adenosine monophosphate levels were determined by the radioimmunoassay of Gilman, Proc. Natl. Acad. Sci. (USA), 67, 305 (1970), using 3H(G)-cyclic-3',5'-adenosine monophosphate (39.8 Cu/m mol). Results were calculated in p mole/10^7 PMNs cells.

Acid phosphatase [3] = assay: Lysosomal free acid phosphatase activity, PMNs; format: cell-based; conditions: 5 μmoles, in vitro; 60 min
Description: as §2
(§3) Acid phosphatase activity (Gianetto et al., Biochem J., 59, 433 1955) was carried out by incubating with 0.1 Mβ-glycerol phosphate in 0.1 M acetate, pH 5.0 with 5 μmoles of test drugs in 1% carboxymethylcellulose (CMC) for 20 min with liver homogenate and 60 min with resuspended PMNs. Lysosome enzymes were released by 0.02% alkyl phenoxy polyethoxy ethanol-100 to obtain the total enzymatic activity. The reaction was stopped with 10% trichloroacetic acid and the solution centrifuged. Aliquots of the supernatant were assayed for inorganic phophate content by the method of Chen et al., Anal Chem., 28, 1756 (1956). Percent free acid phosphatase was calculated. Cathepsin activity was determined in an analagous manner except the substrate used was 2% azocasein (Schleuning et al., Methods in Enzymology, XLV, 330 1976) in 0.1 M acetate buffer pH 5.0. The supernatant was assayed for acid soluble peptide fragments at 366 nm. Percent free cathepsin activity was calculated.

Acid phosphatase [4] = assay: Lysosomal free acid phosphatase activity, liver homogenate; format: biochemical, rats; conditions: 5 μmoles, in vitro; 20 min
Description: (§4) Lysosomal enzymatic assays - Sprague Dawley rats (about 160 g) were sacrificed, the liver excised, and a 10% homogenate (4x) in 0.25 M sucrose and 0.001 M (ethylenedinitrilo) tetra acetic acid, ph 7.2 was prepared.
as §3

liver mitochondria [5] = assay: Oxidative phosphorylation, succinate as substrate; format: biochemical, rats; conditions: 5 μmoles; for Oxidative Phosphorylation Succinate State 3: ADP stimulated respiration; for Oxidative Phosphorylation Succinate State 4: basal respiration
Description: as §1

in vivo = conditions: mouse
Cathepsin [6] = assay: Lysosomal free cathepsin activity, PMNs; format: cell-based; conditions: 5 μmoles; for PMNs % Free Cathespin Activity, pH5: in vitro, 60 min
Description: as §2, §3

[7] = target: T1, prostaglandin synthetase from beef seminal vesicle (Bos taurus, UniProt O62664); assay: Prostaglandin synthetase activity; format: biochemical; conditions: 10^-6 M; for inhibition at 1 µM: read-out: inhibition of prostaglandin synthesis; for activity at 1 µM: 1 h, read-out: Prostaglandin Synthesis
T1 construct: purchased; host or cells: beef seminal vesicle
T1 sequence (O62664 25-600): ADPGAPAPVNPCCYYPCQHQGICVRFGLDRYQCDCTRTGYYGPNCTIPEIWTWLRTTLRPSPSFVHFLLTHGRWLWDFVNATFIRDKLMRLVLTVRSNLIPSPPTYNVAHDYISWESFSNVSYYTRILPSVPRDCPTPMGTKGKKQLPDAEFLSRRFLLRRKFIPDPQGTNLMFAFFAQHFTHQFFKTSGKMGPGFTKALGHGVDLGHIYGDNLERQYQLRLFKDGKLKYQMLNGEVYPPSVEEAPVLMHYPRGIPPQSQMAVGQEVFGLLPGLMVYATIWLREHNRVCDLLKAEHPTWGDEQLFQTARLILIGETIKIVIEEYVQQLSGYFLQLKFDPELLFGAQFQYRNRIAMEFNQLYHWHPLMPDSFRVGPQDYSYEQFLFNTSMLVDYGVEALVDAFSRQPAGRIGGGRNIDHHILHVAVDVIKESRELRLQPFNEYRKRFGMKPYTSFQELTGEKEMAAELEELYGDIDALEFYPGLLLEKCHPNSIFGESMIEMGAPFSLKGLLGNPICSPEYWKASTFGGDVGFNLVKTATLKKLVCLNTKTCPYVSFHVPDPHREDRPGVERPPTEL
Description: After 1 hr at 37° C. the reaction was stopped with 1 N HCl and extracted with ethyl ether and evaporated. […] The plates were dried and developed in iodine vapor and with the use of prostaglandin standards the appropriate areas were scraped and counted for ^3 H content. Indometacin was used as a standard at 10^-4 M concentration. Test drugs were used at 10^-6 M.

Cathepsin [8] = assay: Lysosomal free cathepsin activity, liver homogenate; format: biochemical, rats; conditions: 5 μmoles; for Liver % Free Cathepsin Activity, pH5: in vitro, 20 min
Description: as §4, §3

Sprague Dawley rats = assay: Red and white blood cell counts after 3 weeks dosing; format: in vivo; conditions: rat, in vivo, ip
Source text: Hematocrits were also obtained.

[9] = pH 7.4, 5 μmoles, in vitro, read-out: PMNs cAMP Level
[10] = pH 7.4, read-out: PMNs cAMP Level

| Molecule | Writhing Reflex (CF1 male mice) [% Control] | Oxidative Phosphorylation α Ketoglutarate State 3 (liver mitochondria [1]) [% Control] | Oxidative Phosphorylation α Ketoglutarate State 4 (liver mitochondria [1]) [% Control] | Anti-inflammatory Screen ([2]; 10 mg/kg × 2 intraperitoneally) [% Control] | activity at 5 µmol (cAMP levels in PMNs; [9]) [%] | PMNs % Free Acid Phosphatase Activity, pH5 (Acid phosphatase [3]) [% Control] | Liver % Free Acid Phosphatase Activity, pH5 (Acid phosphatase [4]) [% Control] | Oxidative Phosphorylation Succinate State 3 (liver mitochondria [5]) [% Control] | Oxidative Phosphorylation Succinate State 4 (liver mitochondria [5]) [% Control] | LD50 (in vivo) [mg/kg] | PMNs % Free Cathespin Activity, pH5 (Cathepsin [6]) [% Control] | inhibition at 1 µM [7] [%] | activity at 1 µM [7] [%] | Liver % Free Cathepsin Activity, pH5 (Cathepsin [8]) [% Control] | inhibition of the carrageenan induced edema in mouse foot pads [2] | activity at 5 µmol (cAMP levels in PMNs; [10]) [%] | other results |
| --- | --- | --- | --- | --- | --- | --- | --- | --- | --- | --- | --- | --- | --- | --- | --- | --- | --- |
| C[N+](C)(C)[BH2-]I [IX, (CH3)3 N.BH 2 I] | 37 | 70 ± 13 | 102 ± 16 | 66 | 133 | 71 ± 5 | 71 ± 6 | 63 ± 9 | 120 ± 12 | 250 | 40 ± 4 | > 30 | 67 ± 5 | 14 ± 3 |  |  | activation at 5 µmol (cAMP levels in PMNs; in vitro incubation, 5 μmoles): 33%; inhibition of free proteolytic cathepsin activity of liver (Cathepsin [8]): at least 75% |
| C[NH+](C)[BH2-]C#N [VI, (CH3)2 NH.BH2 CN] | 24 | 45 ± 12 | 128 ± 25 | 49 |  | 89 ± 4 | 73 ± 4 | 61 ± 5 | 126 ± 19 | 39 | 22 ± 1 | > 30 | 63 ± 4 | 32 ± 5 | at least 50% | 98 | inhibition of the writhing reflex (CF1 male mice): 70%; uncoupling with α-ketoglutarate as substrate (liver mitochondria [1]): uncoupling |
| C[N+](C)([BH2-]C#N)CC[N+](C)(C)[BH2-]C#N [XI, N,N,N^1,N^1 -Tetramethylethylenediamine-bis(cyanoborane)] | 76 | 106 ± 21 | 168 ± 38 | 95 |  | 84 ± 5 | 80 ± 6 | 122 ± 13 | 116 ± 8 | 200 | 16 ± 5 |  | 85 ± 4 | 50 ± 7 |  | 94 | inhibition of PMN cathepsin activity (Cathepsin [6]): at least 82% |
| C[N+](C)([BH2-]C(=O)O)CC[N+](C)(C)[BH2-]C(=O)O [XII, N,N,N^1,N^1 -Tetramethylethylenediamine-bis(carboxyborane)] | 54 | 48 ± 30 | 122 ± 15 | 58 | 155 | 84 ± 4 | 69 ± 5 | 57 ± 16 | 80 ± 11 | > 1000 | 52 ± 4 | > 30 | 60 ± 6 | 23 ± 6 | at least 40% |  | uncoupling with α-ketoglutarate as substrate (liver mitochondria [1]): uncoupling; activation at 5 µmol (cAMP levels in PMNs; in vitro incubation, 5 μmoles): 55%; both states 3 and 4 respiration with succinate (liver mitochondria [5]): inhibited; inhibition of free proteolytic cathepsin activity of liver (Cathepsin [8]): at least 75% |
| N#C[BH2-][n+]1ccccc1 [XV, pyridinecyanoborane] | 80 | 52 ± 15 | 112 ± 42 |  | 110 | 57 ± 4 | 79 ± 3 | 57 ± 16 | 124 ± 16 | 25 | 49 ± 7 | > 30 | 58 ± 3 | 57 ± 4 |  |  | Anti-inflammatory Screen ([2]; 1/3 dose (of 10 mg/kg × 2)): 83 % Control |
| N#C[BH2-][NH2+]CC[NH2+][BH2-]C#N [XX, Ethylenediamine-bis(cyanoborane)] | 95 | 25 ± 8 | 50 ± 18 | 87 |  | 100 ± 10 | 77 ± 8 | 10 ± 5 | 13 ± 5 | > 150 | 57 ± 2 |  | 81 ± 5 | 80 ± 7 |  | 28 | both states 3 and 4 respiration with α-ketoglutarate (liver mitochondria [1]): inhibited; both states 3 and 4 respiration with succinate (liver mitochondria [5]): inhibited |
| [Na{H3 N.BH2 (CN)}6 ]I [Compound X] | 12 |  |  | 57 |  |  |  |  |  |  | 0 ± 3 |  |  |  | at least 40% |  | inhibition of the writhing reflex (CF1 male mice): 80%; PMNs cAMP Level (cAMP levels in PMNs; 5 μmoles, in vitro, 60 min): 361 % Control; increase of cyclic adenosine monophosphate levels in PMNs (cAMP levels in PMNs; in vitro incubation, 5 μmoles): 261%; alteration of the red blood or white blood cell count/cu mm (Sprague Dawley rats): no alteration; Prostaglandin Synthesis ([7]; 60 min, 1 µM): 42 ± 5 % Control |
